Laboratory results: the NIST ThermoML archive (doi:10.1016/j.jct.2018.12.006)
Numbers after ± are expanded uncertainties.

Experiment: molar heat capacity at constant pressure
Details: Crystal, Small (less than 1 g) adiabatic calorimetry

C[N+](C)(C)C[C@H](O)CC(=O)[O-] [(R)-3-hydroxy-4-(trimethylammonio)butanoate]
Details | molar heat capacity at constant pressure [J/K/mol]
5 K, 101.33 kPa | 0.29 ± 0.023
6.08 K, 100 kPa | 0.53 ± 0.03
6.27 K, 100 kPa | 0.571 ± 0.032
6.41 K, 100 kPa | 0.622 ± 0.034
6.56 K, 100 kPa | 0.669 ± 0.035
6.69 K, 100 kPa | 0.727 ± 0.038
6.83 K, 100 kPa | 0.774 ± 0.039
6.95 K, 100 kPa | 0.787 ± 0.04
7.08 K, 100 kPa | 0.832 ± 0.042
7.19 K, 100 kPa | 0.851 ± 0.043
7.48 K, 100 kPa | 0.985 ± 0.048
7.82 K, 100 kPa | 1.107 ± 0.053
8.18 K, 100 kPa | 1.278 ± 0.06
8.52 K, 100 kPa | 1.441 ± 0.066
8.75 K, 100 kPa | 1.53 ± 0.07
9.06 K, 100 kPa | 1.689 ± 0.076
9.34 K, 100 kPa | 1.836 ± 0.082
9.62 K, 100 kPa | 2.018 ± 0.09
9.93 K, 100 kPa | 2.207 ± 0.097
10 K, 101.33 kPa | 2.25 ± 0.099
10.24 K, 100 kPa | 2.402 ± 0.1
10.56 K, 100 kPa | 2.616 ± 0.11
10.88 K, 100 kPa | 2.869 ± 0.12
11.21 K, 100 kPa | 3.127 ± 0.14
11.62 K, 100 kPa | 3.417 ± 0.15
11.9 K, 100 kPa | 3.675 ± 0.16
12.69 K, 100 kPa | 4.369 ± 0.19
13.96 K, 100 kPa | 5.657 ± 0.24
15 K, 101.33 kPa | 6.89 ± 0.29
15.22 K, 100 kPa | 7.205 ± 0.3
16.5 K, 100 kPa | 8.836 ± 0.37
17.79 K, 100 kPa | 10.57 ± 0.44
19.1 K, 100 kPa | 12.27 ± 0.51
20 K, 101.33 kPa | 13.41 ± 0.55
20.43 K, 100 kPa | 13.99 ± 0.19
22.35 K, 100 kPa | 16.18 ± 0.22
24.86 K, 100 kPa | 19.02 ± 0.24
25 K, 101.33 kPa | 19.34 ± 0.25
27.27 K, 100 kPa | 21.98 ± 0.27
29.7 K, 100 kPa | 24.73 ± 0.29
30 K, 101.33 kPa | 25.01 ± 0.3
32.15 K, 100 kPa | 27.39 ± 0.32
34.61 K, 100 kPa | 30.12 ± 0.35
35 K, 101.33 kPa | 30.61 ± 0.36
37.06 K, 100 kPa | 32.92 ± 0.38
39.52 K, 100 kPa | 35.77 ± 0.41
40 K, 101.33 kPa | 36.27 ± 0.41
41.98 K, 100 kPa | 38.6 ± 0.26
44.45 K, 100 kPa | 41.3 ± 0.27
45 K, 101.33 kPa | 41.94 ± 0.28
46.92 K, 100 kPa | 43.9 ± 0.29
49.4 K, 100 kPa | 46.7 ± 0.3
50 K, 101.33 kPa | 47.51 ± 0.31
51.56 K, 100 kPa | 49.36 ± 0.32
53.43 K, 100 kPa | 51.37 ± 0.33
55.31 K, 100 kPa | 53.34 ± 0.34
57.23 K, 100 kPa | 55.32 ± 0.35
59.08 K, 100 kPa | 57.13 ± 0.36
60 K, 101.33 kPa | 57.97 ± 0.36
60.96 K, 100 kPa | 58.68 ± 0.36
62.84 K, 100 kPa | 60.64 ± 0.37
64.71 K, 100 kPa | 62.32 ± 0.38
66.57 K, 100 kPa | 64.28 ± 0.39
68.43 K, 100 kPa | 65.98 ± 0.4
70 K, 101.33 kPa | 67.35 ± 0.41
70.29 K, 100 kPa | 67.73 ± 0.41
72.16 K, 100 kPa | 69.2 ± 0.42
74.04 K, 100 kPa | 70.9 ± 0.43
75.9 K, 100 kPa | 72.29 ± 0.44
77.76 K, 100 kPa | 74.17 ± 0.45
79.61 K, 100 kPa | 75.69 ± 0.45
80 K, 101.33 kPa | 75.9 ± 0.46
81.77 K, 100 kPa | 77.54 ± 0.46
84.24 K, 100 kPa | 79.31 ± 0.47
84.82 K, 100 kPa | 79.43 ± 0.47
86.69 K, 100 kPa | 81.13 ± 0.48
88.65 K, 100 kPa | 82.96 ± 0.49
90 K, 101.33 kPa | 83.98 ± 0.51
92.22 K, 100 kPa | 85.77 ± 0.52
95.79 K, 100 kPa | 88.51 ± 0.53
99.36 K, 100 kPa | 91.34 ± 0.54
100 K, 101.33 kPa | 91.81 ± 0.54
102.92 K, 100 kPa | 94.28 ± 0.56
106.48 K, 100 kPa | 96.97 ± 0.57
110 K, 101.33 kPa | 99.54 ± 0.58
110.02 K, 100 kPa | 99.66 ± 0.58
113.57 K, 100 kPa | 102.4 ± 0.6
117.1 K, 100 kPa | 105 ± 0.6
120 K, 101.33 kPa | 107.5 ± 0.6
120.63 K, 100 kPa | 107.7 ± 0.6
124.16 K, 100 kPa | 110.4 ± 0.6
127.68 K, 100 kPa | 113 ± 0.6
130 K, 101.33 kPa | 114.7 ± 0.7
131.19 K, 100 kPa | 115.4 ± 0.7
